Experimental data as given in US10800812B2, “Compstatin analogs with increased solubility and improved pharmacokinetic properties” (The Trustees of the University of Pennsylvania, priority 2018, dated 2020).
Where “and” joins values, the source holds several entries; their conditions need not be identical. Equal entries are not always repeated. Where two headings read alike, the source gives them in different places. Marks after values point to notes of the source that are not given here.

Tests used:
in vivo [1] = conditions: cynomolgus monkey, im, 25 mg/kg
[2] = Solubility of Cp40-based analogs in PBS
physchem = conditions: pH 7.4, Conc. (solubility in PBS)
[3] = Plasma concentration after multiple injections in NHP; assay type: in vivo, cynomolgus monkeys; conditions: cynomolgus monkey, sc
[4] = Residence time in the vitreous after intravitreal injection (WES / SPR competition assay); assay type: in vivo, cynomolgus monkeys; parameters: detection in the vitreous: dose or concentration left out as unconfirmed; conditions: for detection in the vitreous at time points post-injection: days 14-90
Method: To determine the residence time of mPEG(3k)-Cp40, mPEG(1k)-Cp40, Cp40-KK, and Cp40-KKK in the vitreous of cynomolgus macaques, these Cp40-based analogs were administered intravitreally (i.v.t.) to the animals after induction of light ketamine anesthesia (10-15 mg/kg, by intramuscular injection (i.m.)) and dilation of the pupils with tropicamide/phenylephrine ophthalmic solution (see Table 6 for study design).
For i.v.t. injection, the cynomolgus monkeys were anesthetized with a combination of ketamine (15-25 mg/kg, i.m.) and xylazine (2 mg/kg, i.m.) and the eye was cleaned with povidone-iodine solution. After application of oxybuprocaine hydrochloride solution (Benoxil® ophthalmic solution 0.4%) to the cornea as a local anesthetic, the Cp40-based analogs were administered to the animals by i.v.t. injection into either the right (G1, G3) or left (G2, G4) eye of each animal. Immediately following each injection, a single topical dose of 0.5% levofloxacin was administered. After i.v.t. injection of mPEG(3k)-Cp40, mPEG(1k)-Cp40, Cp40-KK, and Cp40-KKK, vitreous fluid samples (about 50 μL each) were withdrawn from Cp40-based analog-treated eyes on days 14, 28, 42, (G1, G2, G3, G4), 56, 73, 90 (G1, G2) (this was done either three times or six times). Samples were collected on ice and stored in a deep freezer (−79.3 to −68.5° C.) until further analysis. On day 73 and 90, about 100 μL of vitreous fluid from G1 and G2 were withdrawn. Presence and concentration of the Cp40-based analogs was determined using either the simple western technology (WES, ProteinSimple, San Jose, Calif.), or surface plasmon resonance (SPR)-based real-time measurement of binding kinetics on a Cp40-KKK immobilized chip (see detailed methods below). Similar results with regard to the intravitreal residence time and concentration levels of the test compounds were obtained regardless of the quantification method selected.
To quantify the levels of all test compounds in vitreous samples collected at different time points following i.v.t. injection (see FIG. 15), WES analysis was performed on a WES instrument (ProteinSimple, San Jose, Calif.) using a 2 to 40 kDa Separation Module and Anti-Rabbit Detection Module according to the manufacturers' instructions. In brief, undiluted eye vitreous samples were mixed with a Fluorescent Master Mix and heated at 95° C. for 5 min. The samples, blocking reagent, primary antibodies (in house developed anti-Cp40; 1:1000 in blocking reagent), HRP-conjugated secondary antibody (anti-rabbit IgG) and chemiluminescent substrate were pipetted into the plate (part of Separation Module). The used instrument settings were: stacking and separation at 375 V for 27 min; blocking reagent for 30 min, primary and secondary antibody both for 30 min; Luminol/peroxide chemiluminescence detection for ˜15 min (exposures of 5, 15, 30, 60, 120, 240, and 480 s). The resulting electropherograms were evaluated using the Compass software (ProteinSimple, San Jose, Calif.). The following criteria were used to discriminate low peptide signals from background: The peak signal-to-noise (S/N) ratio given by the software must be ≥10, and the peak height/baseline ratio (calculated manually from the peak height and baseline values given by the software) must be equal to or greater than 3. A five-point standard curve of known concentrations (100-2,000 nM) of peptide spiked in rabbit vitreous was used to calculate peptide concentration in the vitreous samples using the Compass software (Compass Software Inc., Atlanta, Ga.). […] Shown in FIG. 15 is a representative standard curve generated using the WES system and bands obtained upon running pre-determined amounts of purified peptide spiked into rabbit vitreous samples.
To corroborate the WES-based measurements for all test compounds, an SPR-based competition assay was developed for detecting Cp40 and Cp40 analogs in biological samples. […] The samples were heated at 95° C. for 5 min. […]

in vivo [5] = conditions: male, cynomolgus monkey, sc, 2 mg/kg, t1/2
C3 [6] = biological target: C3 (Homo sapiens, UniProt P01024); conditions: Qu et al. 2013; cited from earlier work
C3 (Homo sapiens, UniProt P01024), sequence (P01024 23-1663): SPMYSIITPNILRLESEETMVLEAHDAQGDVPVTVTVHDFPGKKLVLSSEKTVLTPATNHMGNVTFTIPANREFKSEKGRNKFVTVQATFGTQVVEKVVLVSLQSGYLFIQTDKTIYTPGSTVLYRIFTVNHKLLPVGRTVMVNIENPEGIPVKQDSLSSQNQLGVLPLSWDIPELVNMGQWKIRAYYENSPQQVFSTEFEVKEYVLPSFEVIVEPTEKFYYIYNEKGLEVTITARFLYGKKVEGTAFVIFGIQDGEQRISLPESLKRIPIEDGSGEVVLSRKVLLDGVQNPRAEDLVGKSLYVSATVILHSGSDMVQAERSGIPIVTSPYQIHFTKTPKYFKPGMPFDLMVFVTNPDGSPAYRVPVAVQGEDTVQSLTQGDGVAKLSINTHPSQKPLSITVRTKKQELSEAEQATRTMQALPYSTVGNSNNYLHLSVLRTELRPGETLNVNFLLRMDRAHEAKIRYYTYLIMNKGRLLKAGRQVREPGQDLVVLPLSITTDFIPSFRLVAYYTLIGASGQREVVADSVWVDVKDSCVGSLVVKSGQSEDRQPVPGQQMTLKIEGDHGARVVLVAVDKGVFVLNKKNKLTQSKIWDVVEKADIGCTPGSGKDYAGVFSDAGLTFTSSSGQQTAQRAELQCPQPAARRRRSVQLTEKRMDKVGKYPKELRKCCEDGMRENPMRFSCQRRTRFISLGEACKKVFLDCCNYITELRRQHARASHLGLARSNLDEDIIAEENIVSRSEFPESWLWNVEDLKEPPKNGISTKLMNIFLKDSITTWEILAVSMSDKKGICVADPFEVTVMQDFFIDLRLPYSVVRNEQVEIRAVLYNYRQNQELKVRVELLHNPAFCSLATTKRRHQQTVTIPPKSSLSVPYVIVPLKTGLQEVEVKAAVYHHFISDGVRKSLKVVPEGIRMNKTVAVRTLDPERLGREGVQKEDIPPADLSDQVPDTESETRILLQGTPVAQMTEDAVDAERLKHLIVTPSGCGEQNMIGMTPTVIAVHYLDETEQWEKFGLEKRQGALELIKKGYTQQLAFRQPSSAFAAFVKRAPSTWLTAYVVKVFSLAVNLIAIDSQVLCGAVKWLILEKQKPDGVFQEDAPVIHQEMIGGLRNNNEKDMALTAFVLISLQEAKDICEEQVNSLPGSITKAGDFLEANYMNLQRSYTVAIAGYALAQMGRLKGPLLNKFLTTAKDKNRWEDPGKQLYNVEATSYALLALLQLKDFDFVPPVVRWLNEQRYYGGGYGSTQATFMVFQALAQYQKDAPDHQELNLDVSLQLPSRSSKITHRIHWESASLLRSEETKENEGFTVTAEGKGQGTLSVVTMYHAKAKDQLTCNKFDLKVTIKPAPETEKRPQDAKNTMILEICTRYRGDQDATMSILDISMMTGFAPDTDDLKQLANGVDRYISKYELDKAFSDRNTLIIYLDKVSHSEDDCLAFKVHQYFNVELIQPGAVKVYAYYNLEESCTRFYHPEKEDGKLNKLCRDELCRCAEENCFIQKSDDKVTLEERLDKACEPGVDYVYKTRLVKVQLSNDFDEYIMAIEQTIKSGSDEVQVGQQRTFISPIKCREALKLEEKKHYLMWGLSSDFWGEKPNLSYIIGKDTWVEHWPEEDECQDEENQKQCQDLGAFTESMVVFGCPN

[7] = Pharmacokinetics in NHP plasma after single s.c. injection; conditions: for AUC(0-t): AUC0-t (0-120 h); for AUC(0-inf): AUCinf
[8] = system: classical pathway activation (C3b deposition); assay: Classical pathway activation ELISA (C3b deposition) with or without rabbit vitreous; assay type: biochemical, human; conditions: in the absence of vitreous
Method: An alternative explanation to the one presented above is that the vitreous contains additional unidentified factors that associate with the Cp40-KKK analog. To investigate whether an unidentified vitreous factor impacts the complement inhibitory activity of lysine containing compounds, complement activation assays were performed using vitreous samples. Briefly, human plasma was incubated with OVA-anti-OVA immune-complexes in the presence of serial dilutions of the Cp40-based analogs mixed with rabbit vitreous. Levels of classical pathway activation (C3b deposition) were determined by ELISA using a polyclonal anti-human C3 antibody conjugated with HRP (MP Biomedicals, Solon, Ohio) (FIG. 20).

[9] = Pharmacokinetics after single i.v. injection; parameters: species or system cynomolgus monkeys; conditions: cynomolgus monkey, in vivo, iv
Method: In vivo pharmacokinetic studies were conducted, in which cynomolgus monkeys were administered single i.v. injections of mPEG(1k)-Cp40, mPEG(3k)-Cp40, Cp40-KK, or Cp40-KKK.

purified human C3b = biological target: T1, purified human C3b (Homo sapiens, UniProt P01024); assay: SPR C3b binding of Cp40-KKK in vitreous samples; conditions: for C3b-binding signal: day 14
T1 construct: purchased Complement Technology, Inc., Tyler, Tex
T1 sequence (P01024 23-667 limits assumed): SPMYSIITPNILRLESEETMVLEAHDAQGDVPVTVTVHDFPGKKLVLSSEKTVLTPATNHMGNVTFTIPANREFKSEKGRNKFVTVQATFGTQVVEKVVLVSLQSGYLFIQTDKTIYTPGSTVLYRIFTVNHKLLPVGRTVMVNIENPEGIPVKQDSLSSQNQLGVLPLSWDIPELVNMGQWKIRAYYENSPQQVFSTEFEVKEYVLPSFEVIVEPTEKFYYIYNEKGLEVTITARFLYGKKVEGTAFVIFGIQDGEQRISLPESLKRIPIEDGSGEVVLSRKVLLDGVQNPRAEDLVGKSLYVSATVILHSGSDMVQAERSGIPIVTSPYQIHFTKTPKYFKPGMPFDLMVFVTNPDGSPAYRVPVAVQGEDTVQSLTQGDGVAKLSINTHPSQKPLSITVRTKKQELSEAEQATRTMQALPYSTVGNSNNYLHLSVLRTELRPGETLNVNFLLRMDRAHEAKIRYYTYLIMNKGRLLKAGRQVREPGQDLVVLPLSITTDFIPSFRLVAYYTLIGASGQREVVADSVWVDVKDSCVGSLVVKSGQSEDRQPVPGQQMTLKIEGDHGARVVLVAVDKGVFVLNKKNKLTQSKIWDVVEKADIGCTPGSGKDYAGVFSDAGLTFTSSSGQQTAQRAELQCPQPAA
T1 sequence (P01024 749-1663 partner limits assumed): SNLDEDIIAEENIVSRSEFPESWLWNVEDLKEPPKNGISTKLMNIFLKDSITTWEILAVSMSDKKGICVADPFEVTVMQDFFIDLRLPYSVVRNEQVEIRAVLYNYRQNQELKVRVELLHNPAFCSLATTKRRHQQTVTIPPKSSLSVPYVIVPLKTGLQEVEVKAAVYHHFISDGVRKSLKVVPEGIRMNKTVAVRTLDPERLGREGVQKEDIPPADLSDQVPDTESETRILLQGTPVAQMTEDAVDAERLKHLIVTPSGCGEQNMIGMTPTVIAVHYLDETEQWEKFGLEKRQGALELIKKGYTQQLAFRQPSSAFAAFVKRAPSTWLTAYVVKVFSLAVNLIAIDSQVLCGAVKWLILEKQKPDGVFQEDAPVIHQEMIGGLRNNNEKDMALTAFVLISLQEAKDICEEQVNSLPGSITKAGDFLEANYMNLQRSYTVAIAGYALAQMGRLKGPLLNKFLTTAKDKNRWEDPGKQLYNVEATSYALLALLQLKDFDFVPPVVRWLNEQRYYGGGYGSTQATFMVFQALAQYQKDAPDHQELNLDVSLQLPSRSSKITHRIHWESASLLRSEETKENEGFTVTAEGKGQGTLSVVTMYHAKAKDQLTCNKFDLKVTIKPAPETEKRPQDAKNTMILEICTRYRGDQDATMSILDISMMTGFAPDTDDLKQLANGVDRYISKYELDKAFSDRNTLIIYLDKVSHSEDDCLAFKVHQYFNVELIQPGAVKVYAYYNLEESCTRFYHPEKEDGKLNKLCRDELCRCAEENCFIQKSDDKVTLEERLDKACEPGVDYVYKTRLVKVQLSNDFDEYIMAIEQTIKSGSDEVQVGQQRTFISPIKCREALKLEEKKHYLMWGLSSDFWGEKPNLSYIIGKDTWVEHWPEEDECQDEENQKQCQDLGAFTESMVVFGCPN
Method: To confirm that the compound present in the NHP vitreous maintains C3b-binding activity, which is a prerequisite for eliciting its inhibitory action across all complement pathways, surface plasmon resonance (SPR) binding experiments were conducted. Briefly, for a positive binding control, serial dilutions of Cp40-KKK (16, 8, 4, and 2 nM) were added to rabbit vitreous samples and flowed onto a Biacore CM5 chip immobilized with purified human C3b (Complement Technology Inc, Tyler, Tex.) (see FIG. 19A). Next, vitreous samples were collected from a Cp40-KKK injected eye at day 14 post-injection and subjected to heat-inactivation at 95° C. for 5 min. Both heat-inactivated and non-heat-inactivated samples were flowed onto a CM5 chip immobilized with purified human C3b as indicated above (FIG. 19B).

[10] = Pharmacokinetics after single i.m. injection; conditions: cynomolgus monkey, in vivo, im, 25 mg/kg
[11] = Lys cleavage fragments in NHP plasma after s.c. injection (UPLC-ESI-MS); assay type: in vivo, cynomolgus monkeys; conditions: after s.c. 2 mg/kg Cp40-KKK, both animals
human C3b = biological target: T2, human C3b (Homo sapiens, UniProt P01024); assay: SPR binding affinity and kinetics with C3b; conditions: 25° C., 1:1 Langmuir model; read-out: ka, association constant
T2 construct: purchased Complement Technology, Inc., Tyler, Tex
T2 sequence (P01024 23-667 limits assumed): as the sequence (P01024 23-667 limits assumed) above
T2 sequence (P01024 749-1663 partner limits assumed): as the sequence (P01024 749-1663 partner limits assumed) above

C3 [12] = assay: C3 saturation in NHP plasma after single s.c. injection; assay type: in vivo, cynomolgus monkeys (Macaca fascicularis); conditions: single s.c. 2 mg/kg
[13] = cynomolgus monkey, in vivo, sc, 2 mg/kg
[14] = at the solubility concentration
[15] = male, cynomolgus monkey, plasma, sc, 2 mg/kg, single s.c. 2 mg/kg, NHP plasma, two animals
[16] = male, cynomolgus monkey, plasma, sc, 2 mg/kg, Cmax, single s.c. 2 mg/kg, NHP plasma, two animals
[17] = single s.c. 2 mg/kg, NHP plasma, two animals, 2 mg/kg
[18] = single s.c. 2 mg/kg, NHP plasma, two animals, listed as Cp40-KKK (SUM), 2 mg/kg

CC[C@H](C)[C@H](NC(=O)[C@H](N)Cc1ccc(O)cc1)C(=O)N[C@H]1CSSC[C@@H](C(=O)N(C)[C@H](C(N)=O)[C@@H](C)CC)NC(=O)[C@H](CCCNC(=N)N)NC(=O)[C@H](Cc2c[nH]cn2)NC(=O)[C@H](C)NC(=O)CN(C)C(=O)[C@H](Cc2c[nH]c3ccccc23)NC(=O)[C@H](CC(=O)O)NC(=O)[C@H](CCC(N)=O)NC(=O)[C@H](Cc2cn(C)c3ccccc23)NC(=O)[C@H](C(C)C)NC1=O [Cp40, DTyr-Ile-[Cys-Val-Trp(Me)-Gln-Asn-Trp-Sar-Ala-His-Arg-Cys]-mIle-NH2, reference compound]
half-life (in vivo [1]): ~192 h
pH of the peptide solution in PBS [2, 14]: 7.5
solubility (physchem): ≥ 1.08 mg/mL
Cmax ([3]; in vivo, 4 mg/kg): 8 to 10 µM
detection in the vitreous ([4]; Cp40 i.v.t administered): no detection of any compound was observed after one month
half-life (in vivo [5]): 41 h
binding affinity for C3 (C3 [6]): subnanomolar
binding affinity for C3 higher than that of the parent peptide (C3 [6]): ~6,000 fold
AUC(0-t) [7, 15]: 233 µM·h
AUC(0-inf) [7, 15]: 263 µM·h
Cmax [7, 16]: 6.2 µM
Tmax ([7]; male, cynomolgus monkey, plasma, sc, 2 mg/kg, tmax, single s.c. 2 mg/kg, NHP plasma, two animals): 2 h
AUC0-t (0-120 h) [7, 17]: 218 µM·h
AUCinf [7, 17]: 255 µM·h
Cmax [7, 17]: 5.53 µM
complement classical pathway inhibitory activity [8]: inhibitory activity in a dose-dependent manner

CC[C@H](C)[C@H](NC(=O)[C@H](N)Cc1ccc(O)cc1)C(=O)N[C@H]1CSSC[C@@H](C(=O)N(C)[C@H](C(=O)N[C@@H](CCCCN)C(=O)N[C@@H](CCCCN)C(=O)N[C@@H](CCCCN)C(N)=O)[C@@H](C)CC)NC(=O)[C@H](CCCNC(=N)N)NC(=O)[C@H](Cc2c[nH]cn2)NC(=O)[C@H](C)NC(=O)CN(C)C(=O)[C@H](Cc2c[nH]c3ccccc23)NC(=O)[C@H](CC(=O)O)NC(=O)[C@H](CCC(N)=O)NC(=O)[C@H](Cc2cn(C)c3ccccc23)NC(=O)[C@H](C(C)C)NC1=O [Cp40-KKK, DTyr-Ile-[Cys-Val-Trp(Me)-Gln-Asn-Trp-Sar-Ala-His-Arg-Cys]-mIle-Lys-Lys-Lys-NH2]
Lys cleavage in plasma upon i.v. injection [9]: metabolized into Cp40-KK and small amounts of Cp40-K
half-life ([9]; single i.v. injection 2 mg/kg): 35.3 h
AUC(0-t) ([9]; single i.v. injection 2 mg/kg, read-out: AUC 0-120): 312 µM·h
pH of the peptide solution in PBS ([2]; after additional lyophilization from H2O): 9.5
pH of the peptide solution in PBS [2, 14]: 8.5
pH of the peptide solution in PBS ([2]; pH adjusted upon addition of PBS): 7.5*
Cmax ([3]; plasma, 2 mg/kg every 48 hrs, read-out: observed Cmax after multiple s.c. dosing): ≥ 20 µM
C3b-binding signal (purified human C3b; heat-inactivated vitreous sample): 10 relative units
C3b-binding signal (purified human C3b; non-heat inactivated vitreous sample): 2 relative units
binding to C3b (purified human C3b; spiked into rabbit vitreous, 2-16 nM): binds to C3b in a dose-dependent manner
C3b-binding activity of compound present in NHP vitreous (purified human C3b; vitreous from injected eye, day 14 post-injection): maintains its C3b-binding activity
half-life [10]: ~192 h
intravitreal residence time ([4]; after i.v.t.): ≥ 3 months
vitreous residence time at C3 saturating levels ([4]; single i.v.t. injection 0.5 mg): ≥ 90 days
detection in the vitreous at time points post-injection ([4]; single i.v.t. injection 0.5 mg): detected even at day 90 post-treatment
concentration of intact Cp40-KKK in plasma at any time point [11]: ≤ 2 µM
CL/F ([7]; male, cynomolgus monkey, plasma, sc, 2 mg/kg): ~45 mL/min/kg
AUC(0-t) [7, 15]: ~616 µM·h
AUC(0-inf) [7, 15]: 805 µM·h
Cmax [7, 16]: ~13.5 µM
half-life ([7]; male, cynomolgus monkey, plasma, sc, 2 mg/kg, t1/2, single s.c. 2 mg/kg, NHP plasma, two animals): ~44.3 h
AUC0-t increased vs Cp40 ([7]; s.c. 2 mg/kg): ~2.6 fold
CL/F decreased vs Cp40 ([7]; s.c. 2 mg/kg): ~3 fold
cmax higher than Cp40 ([7]; s.c. 2 mg/kg): ~2 fold
t1/2 [7, 17]: 42 h and 47 h
AUC0-t (0-120 h) [7, 18]: 658 µM·h and 573 µM·h
AUCinf [7, 18]: 685 µM·h
Cmax [7, 18]: 11.9 µM and 15.1 µM
t1/2 [7, 18]: 46.7 h and 41.8 h
complement classical pathway inhibitory activity [8]: inhibitory activity in a dose-dependent manner
kon (human C3b): 3.83e+06 M⁻¹ s⁻¹

mPEG(3k)-Cp40: N-terminus of Cp40 coupled to polydisperse PEG chain of 3 kDa via amide coupling
Conc. (solubility in PBS) ([2]; PBS (pH 7.4)): 270 mg/mL
pH of the peptide solution in PBS [2, 14]: 7
C3 saturation time (peptide above plasma level of C3) (C3 [12]): ~34 h
detection in the vitreous at time points post-injection ([4]; single i.v.t. injection 0.5 mg): detected at day 14 post injection but not in later time points
CL/F [13]: ~43.5 mL/min/kg
